According to ChEMBL document CHEMBL3885861, “Open TG-GATES”:

Organism: Rattus norvegicus
Test: Open TG-GATES - Regimen: Single
Type: toxicity, organism-based, Sprague-Dawley
Set-up: regimen Single, gender Male, age 6 weeks
Conditions: in vivo, po, route gavage; for APTT / Bas / Eos / Fbg / Hb / Ht / Lym / MCH / MCHC / MCV / Mono / Neu / PT / Plat / RBC / Ret / WBC: tissue Blood; for KIDNEY_L / KIDNEY_R / KIDNEY_TOTAL: tissue Kidney; for LIVER: tissue Liver; for A/G / ALP / ALT / AST / BUN / CRE / Ca / Cl / DBIL / GLC / IP / K / LDH / Na / PL / RALB / TBIL / TC / TG / TP / gamma-GTP: tissue Plasma
[1] = 30 mg/kg, 3 h, dose level Middle
[2] = 30 mg/kg, 6 h, dose level Middle
[3] = 30 mg/kg, 9 h, dose level Middle
[4] = 30 mg/kg, 24 h, dose level Middle
[5] = 100 mg/kg, 3 h, dose level High
[6] = 100 mg/kg, 6 h, dose level High
[7] = 100 mg/kg, 9 h, dose level High
[8] = 100 mg/kg, 24 h, dose level High

## CN(C)CCN(Cc1cccs1)c1ccccn1
[1]
  TERMINAL_BW: 182 g
  APTT: 21.9 s
  Bas: 0%
  Eos: 0.6%
  Fbg: 308.2 mg/dL
  Hb: 13 g/dL
  Ht: 39.6%
  Lym: 80.2%
  MCH: 21.6 pg
  MCHC: 32.8%
  MCV: 65.9 fL
  Mono: 2.2%
  Neu: 15.8%
  PT: 16.1 s
  Plat: 115.9 x10_4/uL
  RBC: 603 x10_4/ul
  Ret: 7.3%
  WBC: 81.5 x10_2/uL
  KIDNEY_L: 0.8 g
  KIDNEY_R: 0.9 g
  KIDNEY_TOTAL: 1.7 g
  LIVER: 8.3 g
  A/G: 1.3
  ALP: 1624.8 IU/L
  ALT: 41.4 IU/L
  AST: 73.6 IU/L
  BUN: 13 mg/dL
  CRE: 0.2 mg/dL
  Ca: 10.5 mg/dL
  Cl: 107.6 meq/L
  DBIL: 0 mg/dL
  GLC: 179 mg/dL
  IP: 8.4 mg/dL
  K: 4.4 meq/L
  LDH: 201.8 IU/L
  Na: 142.8 meq/L
  PL: 140.4 mg/dL
  RALB: 3 g/dL
  TBIL: 0.016 mg/dL
  TC: 75.4 mg/dL
  TG: 53.4 mg/dL
  TP: 5.4 g/dL
  gamma-GTP: 1 IU/L
[2]
  TERMINAL_BW: 186.2 g
  APTT: 21.5 s
  Bas: 0%
  Eos: 0.6%
  Fbg: 292.6 mg/dL
  Hb: 12.6 g/dL
  Ht: 38.7%
  Lym: 74.6%
  MCH: 21 pg
  MCHC: 32.7%
  MCV: 64 fL
  Mono: 2%
  Neu: 22%
  PT: 16.9 s
  Plat: 117.9 x10_4/uL
  RBC: 604 x10_4/ul
  Ret: 7.6%
  WBC: 62.8 x10_2/uL
  KIDNEY_L: 0.8 g
  KIDNEY_R: 0.9 g
  KIDNEY_TOTAL: 1.7 g
  LIVER: 8 g
  A/G: 1.2
  ALP: 1536.2 IU/L
  ALT: 34.2 IU/L
  AST: 71.2 IU/L
  BUN: 12.8 mg/dL
  CRE: 0.1 mg/dL
  Ca: 10.5 mg/dL
  Cl: 106.2 meq/L
  DBIL: 0 mg/dL
  GLC: 173 mg/dL
  IP: 9.2 mg/dL
  K: 4.5 meq/L
  LDH: 178 IU/L
  Na: 141.6 meq/L
  PL: 142.4 mg/dL
  RALB: 2.8 g/dL
  TBIL: 0.024 mg/dL
  TC: 82.6 mg/dL
  TG: 53 mg/dL
  TP: 5.3 g/dL
  gamma-GTP: 1 IU/L
[3]
  TERMINAL_BW: 183.7 g
  APTT: 20.6 s
  Bas: 0%
  Eos: 0.6%
  Fbg: 290.8 mg/dL
  Hb: 12.9 g/dL
  Ht: 38.4%
  Lym: 74%
  MCH: 21.1 pg
  MCHC: 33.5%
  MCV: 63.1 fL
  Mono: 2.2%
  Neu: 22.2%
  PT: 15.5 s
  Plat: 124.7 x10_4/uL
  RBC: 608.8 x10_4/ul
  Ret: 7.7%
  WBC: 66.5 x10_2/uL
  KIDNEY_L: 0.8 g
  KIDNEY_R: 0.8 g
  KIDNEY_TOTAL: 1.7 g
  LIVER: 7.5 g
  A/G: 1.2
  ALP: 1582.8 IU/L
  ALT: 35.8 IU/L
  AST: 69.8 IU/L
  BUN: 11.2 mg/dL
  CRE: 0.1 mg/dL
  Ca: 10.3 mg/dL
  Cl: 106.8 meq/L
  DBIL: 0.002 mg/dL
  GLC: 166.6 mg/dL
  IP: 9.9 mg/dL
  K: 4.5 meq/L
  LDH: 205.6 IU/L
  Na: 141.8 meq/L
  PL: 131 mg/dL
  RALB: 3 g/dL
  TBIL: 0.022 mg/dL
  TC: 77.4 mg/dL
  TG: 42.2 mg/dL
  TP: 5.5 g/dL
  gamma-GTP: 1 IU/L
[4]
  TERMINAL_BW: 198 g
  APTT: 20 s
  Bas: 0%
  Eos: 0.8%
  Fbg: 308 mg/dL
  Hb: 12.9 g/dL
  Ht: 38.8%
  Lym: 84.4%
  MCH: 20.6 pg
  MCHC: 33.2%
  MCV: 62.1 fL
  Mono: 1.6%
  Neu: 12.4%
  PT: 16.8 s
  Plat: 124 x10_4/uL
  RBC: 625.6 x10_4/ul
  Ret: 6.8%
  WBC: 67.2 x10_2/uL
  KIDNEY_L: 0.9 g
  KIDNEY_R: 0.9 g
  KIDNEY_TOTAL: 1.8 g
  LIVER: 9.3 g
  A/G: 1.2
  ALP: 1883 IU/L
  ALT: 46.4 IU/L
  AST: 74.8 IU/L
  BUN: 15.4 mg/dL
  CRE: 0.2 mg/dL
  Ca: 10.9 mg/dL
  Cl: 106 meq/L
  DBIL: 0.004 mg/dL
  GLC: 179.8 mg/dL
  IP: 7.3 mg/dL
  K: 4.4 meq/L
  LDH: 254.8 IU/L
  Na: 142.4 meq/L
  PL: 143.2 mg/dL
  RALB: 3 g/dL
  TBIL: 0.008 mg/dL
  TC: 73.4 mg/dL
  TG: 124.6 mg/dL
  TP: 5.5 g/dL
  gamma-GTP: 1.2 IU/L
[5]
  TERMINAL_BW: 184.9 g
  APTT: 21.5 s
  Bas: 0%
  Eos: 0.8%
  Fbg: 290.4 mg/dL
  Hb: 13.2 g/dL
  Ht: 40.2%
  Lym: 74%
  MCH: 20.6 pg
  MCHC: 32.9%
  MCV: 62.8 fL
  Mono: 2%
  Neu: 22.2%
  PT: 16.3 s
  Plat: 121.5 x10_4/uL
  RBC: 640.8 x10_4/ul
  Ret: 7.2%
  WBC: 60.8 x10_2/uL
  KIDNEY_L: 0.8 g
  KIDNEY_R: 0.9 g
  KIDNEY_TOTAL: 1.7 g
  LIVER: 8 g
  A/G: 1.2
  ALP: 1601.8 IU/L
  ALT: 54.6 IU/L
  AST: 82.2 IU/L
  BUN: 10.8 mg/dL
  CRE: 0.1 mg/dL
  Ca: 10.3 mg/dL
  Cl: 106.6 meq/L
  DBIL: 0.002 mg/dL
  GLC: 185 mg/dL
  IP: 8.3 mg/dL
  K: 4.3 meq/L
  LDH: 258.8 IU/L
  Na: 142.4 meq/L
  PL: 121.4 mg/dL
  RALB: 2.9 g/dL
  TBIL: 0.012 mg/dL
  TC: 69.8 mg/dL
  TG: 36 mg/dL
  TP: 5.4 g/dL
  gamma-GTP: 1 IU/L
[6]
  TERMINAL_BW: 183.8 g
  APTT: 21.3 s
  Bas: 0%
  Eos: 0.4%
  Fbg: 282.2 mg/dL
  Hb: 13.1 g/dL
  Ht: 39.5%
  Lym: 76%
  MCH: 21.6 pg
  MCHC: 33.3%
  MCV: 64.8 fL
  Mono: 2.4%
  Neu: 20.6%
  PT: 16.6 s
  Plat: 120.5 x10_4/uL
  RBC: 610 x10_4/ul
  Ret: 8.4%
  WBC: 73.4 x10_2/uL
  KIDNEY_L: 0.8 g
  KIDNEY_R: 0.8 g
  KIDNEY_TOTAL: 1.7 g
  LIVER: 7.5 g
  A/G: 1.1
  ALP: 1538 IU/L
  ALT: 51.2 IU/L
  AST: 90.2 IU/L
  BUN: 14.6 mg/dL
  CRE: 0.2 mg/dL
  Ca: 10.5 mg/dL
  Cl: 107.4 meq/L
  DBIL: 0.004 mg/dL
  GLC: 170.2 mg/dL
  IP: 9.4 mg/dL
  K: 4.5 meq/L
  LDH: 259.2 IU/L
  Na: 141.8 meq/L
  PL: 110 mg/dL
  RALB: 2.8 g/dL
  TBIL: 0.02 mg/dL
  TC: 64.8 mg/dL
  TG: 33.4 mg/dL
  TP: 5.2 g/dL
  gamma-GTP: 1 IU/L
[7]
  TERMINAL_BW: 183.7 g
  APTT: 21.3 s
  Bas: 0%
  Eos: 0.8%
  Fbg: 284.6 mg/dL
  Hb: 13.2 g/dL
  Ht: 39.6%
  Lym: 72.2%
  MCH: 21.1 pg
  MCHC: 33.3%
  MCV: 63.5 fL
  Mono: 3.6%
  Neu: 22.6%
  PT: 16.2 s
  Plat: 122.3 x10_4/uL
  RBC: 624.2 x10_4/ul
  Ret: 7.6%
  WBC: 71.6 x10_2/uL
  KIDNEY_L: 0.8 g
  KIDNEY_R: 0.9 g
  KIDNEY_TOTAL: 1.7 g
  LIVER: 7.8 g
  A/G: 1.2
  ALP: 1538 IU/L
  ALT: 60.2 IU/L
  AST: 100.6 IU/L
  BUN: 11 mg/dL
  CRE: 0.1 mg/dL
  Ca: 10.1 mg/dL
  Cl: 107.6 meq/L
  DBIL: 0 mg/dL
  GLC: 172.8 mg/dL
  IP: 9.7 mg/dL
  K: 4.2 meq/L
  LDH: 233.6 IU/L
  Na: 141.8 meq/L
  PL: 117 mg/dL
  RALB: 2.9 g/dL
  TBIL: 0.022 mg/dL
  TC: 68 mg/dL
  TG: 35 mg/dL
  TP: 5.3 g/dL
  gamma-GTP: 1.2 IU/L
[8]
  TERMINAL_BW: 193.3 g
  APTT: 20.8 s
  Bas: 0%
  Eos: 0.8%
  Fbg: 275.2 mg/dL
  Hb: 13 g/dL
  Ht: 39.4%
  Lym: 73.2%
  MCH: 20.7 pg
  MCHC: 32.9%
  MCV: 62.9 fL
  Mono: 2.8%
  Neu: 22.2%
  PT: 17.3 s
  Plat: 114.4 x10_4/uL
  RBC: 627 x10_4/ul
  Ret: 7%
  WBC: 61.6 x10_2/uL
  KIDNEY_L: 0.8 g
  KIDNEY_R: 0.9 g
  KIDNEY_TOTAL: 1.7 g
  LIVER: 9.1 g
  A/G: 1.3
  ALP: 1813.6 IU/L
  ALT: 68.4 IU/L
  AST: 109.6 IU/L
  BUN: 16 mg/dL
  CRE: 0.2 mg/dL
  Ca: 10.7 mg/dL
  Cl: 106.6 meq/L
  DBIL: 0.004 mg/dL
  GLC: 172 mg/dL
  IP: 7.8 mg/dL
  K: 4.4 meq/L
  LDH: 260.2 IU/L
  Na: 143.2 meq/L
  PL: 136 mg/dL
  RALB: 2.9 g/dL
  TBIL: 0.01 mg/dL
  TC: 70.8 mg/dL
  TG: 65.2 mg/dL
  TP: 5.2 g/dL
  gamma-GTP: 1 IU/L
